# Results as given in US10981186B2, “Functional treatment application to particulate materials such as mulch or potting soil” (priority 2014, dated 2021).
# Tests used:
# [1] = Screening test 4: recovery of herbicide active ingredient from mulch (methanol extraction, HPLC); assay type: physicochemical
# Experimental: Screening test 4: Recovery of functional material from particulate material
# In this experimental study the herbicide active ingredient was analyzed as the content of functional material (herbicide) as the active ingredient in the particulate material (mulch).
# Assay protocol: Ten milliliters of 100% methanol was used to extract the herbicide actives, Pendimethalin and Dimethenamid-P from one gram of mulch. Methanol and mulch were added to a vial and shaken at approximately 180 rpm for 30 minutes on a shaker table. Methanol was filtered from mulch and analyzed for actives via HPLC. Active ingredient recovery was recorded as weight percent. […]
# Table 2 and Table 3 show the results of an experiment related to the recovery of herbicide active ingredient from particulate material after providing functional herbicide coating. Table 2 and Table 3 show active ingredient releasing from the mulch at one month exposure compared to non-exposed mulch in warehouse.
# [2] = system: red imported fire ant (Solenopsis invicta) workers; details: rate evaluation, 0.5 to 3 X label rate
# Text: Testing with red imported fire ant (Solenopsis invicta, RIFA), Argentine ant (Linepthema humile), and odorous house ant (OHA) workers. Ten inch plastic arenas (inside walls coated with Fluon® to prevent escape) were provided a layer of moistened play sand. A band of mulch was placed across the arena near one side. Between the closest side and the mulch, a micro-centrifuge tube with a universal ant diet was placed. In the larger open area of the arena was placed a water vial and a small weigh boat with either corn grit+soybean oil (RIFA) or 20% honey water (Argentine ant and OHA). Approximately 100 ants were placed in each arena. Mortality was evaluated at 6 or 7 days.
# [3] = Black mulch, Warehouse (non-exposed)
# [4] = Natural mulch, Warehouse (non-exposed)
# [5] = Red mulch, Warehouse (non-exposed)
structure (smiles),measurement,setting,value
COC[C@H](C)N(C(=O)CCl)c1c(C)csc1C [dimethenamid-P],weight percent of dimethenamid-P,"[1]; Black mulch, Bottom 1 month",<LOD
same,weight percent of dimethenamid-P,"[1]; Black mulch, Top 1 month",0.00003 weight percent
same,weight percent of dimethenamid-P,[1]; [3],0.002 weight percent
same,weight percent of dimethenamid-P,"[1]; Natural mulch, Bottom 1 month",<LOD
same,weight percent of dimethenamid-P,"[1]; Natural mulch, Top 1 month",0.00004 weight percent
same,weight percent of dimethenamid-P,[1]; [4],0.00203 weight percent
same,weight percent of dimethenamid-P,"[1]; Red mulch, Bottom 1 month",0.00000 weight percent
same,weight percent of dimethenamid-P,"[1]; Red mulch, Top 1 month",0.00002 weight percent
same,weight percent of dimethenamid-P,[1]; [5],0.00233 weight percent
CN/C(=N/CC1CCOC1)N[N+](=O)[O-] (stereo not shown) [dinotefuran],effectiveness over the rates tested (conclusion in words),[2],effective at all rates tested
CCC(CC)Nc1c([N+](=O)[O-])cc(C)c(C)c1[N+](=O)[O-] [pendimethalin],weight percent of pendimethalin,"[1]; Black mulch, Bottom 1 month",0.00005 weight percent
same,weight percent of pendimethalin,"[1]; Black mulch, Top 1 month",0.00044 weight percent
same,weight percent of pendimethalin,[1]; [3],0.0044 weight percent
same,weight percent of pendimethalin,"[1]; Natural mulch, Bottom 1 month",0.00026 weight percent
same,weight percent of pendimethalin,"[1]; Natural mulch, Top 1 month",0.00079 weight percent
same,weight percent of pendimethalin,[1]; [4],0.00674 weight percent
same,weight percent of pendimethalin,"[1]; Red mulch, Bottom 1 month",0.00026 weight percent
same,weight percent of pendimethalin,"[1]; Red mulch, Top 1 month",0.00054 weight percent
same,weight percent of pendimethalin,[1]; [5],0.00302 weight percent
